Assays:
[1] = biological target: Macrophage colony-stimulating factor 1 receptor (Homo sapiens, UniProt P07333); assay: Inhibition of CSF1R (unknown origin)
[2] = biological target: Phosphatidylinositol 4,5-bisphosphate 3-kinase catalytic subunit alpha isoform (Homo sapiens, UniProt P42336); assay: Inhibition of PI3Kalpha (unknown origin)
[3] = biological target: Hepatocyte growth factor receptor (Homo sapiens, UniProt P08581); assay: Inhibition of HGF receptor (unknown origin)
Sequence of Hepatocyte growth factor receptor (P08581 whole entry): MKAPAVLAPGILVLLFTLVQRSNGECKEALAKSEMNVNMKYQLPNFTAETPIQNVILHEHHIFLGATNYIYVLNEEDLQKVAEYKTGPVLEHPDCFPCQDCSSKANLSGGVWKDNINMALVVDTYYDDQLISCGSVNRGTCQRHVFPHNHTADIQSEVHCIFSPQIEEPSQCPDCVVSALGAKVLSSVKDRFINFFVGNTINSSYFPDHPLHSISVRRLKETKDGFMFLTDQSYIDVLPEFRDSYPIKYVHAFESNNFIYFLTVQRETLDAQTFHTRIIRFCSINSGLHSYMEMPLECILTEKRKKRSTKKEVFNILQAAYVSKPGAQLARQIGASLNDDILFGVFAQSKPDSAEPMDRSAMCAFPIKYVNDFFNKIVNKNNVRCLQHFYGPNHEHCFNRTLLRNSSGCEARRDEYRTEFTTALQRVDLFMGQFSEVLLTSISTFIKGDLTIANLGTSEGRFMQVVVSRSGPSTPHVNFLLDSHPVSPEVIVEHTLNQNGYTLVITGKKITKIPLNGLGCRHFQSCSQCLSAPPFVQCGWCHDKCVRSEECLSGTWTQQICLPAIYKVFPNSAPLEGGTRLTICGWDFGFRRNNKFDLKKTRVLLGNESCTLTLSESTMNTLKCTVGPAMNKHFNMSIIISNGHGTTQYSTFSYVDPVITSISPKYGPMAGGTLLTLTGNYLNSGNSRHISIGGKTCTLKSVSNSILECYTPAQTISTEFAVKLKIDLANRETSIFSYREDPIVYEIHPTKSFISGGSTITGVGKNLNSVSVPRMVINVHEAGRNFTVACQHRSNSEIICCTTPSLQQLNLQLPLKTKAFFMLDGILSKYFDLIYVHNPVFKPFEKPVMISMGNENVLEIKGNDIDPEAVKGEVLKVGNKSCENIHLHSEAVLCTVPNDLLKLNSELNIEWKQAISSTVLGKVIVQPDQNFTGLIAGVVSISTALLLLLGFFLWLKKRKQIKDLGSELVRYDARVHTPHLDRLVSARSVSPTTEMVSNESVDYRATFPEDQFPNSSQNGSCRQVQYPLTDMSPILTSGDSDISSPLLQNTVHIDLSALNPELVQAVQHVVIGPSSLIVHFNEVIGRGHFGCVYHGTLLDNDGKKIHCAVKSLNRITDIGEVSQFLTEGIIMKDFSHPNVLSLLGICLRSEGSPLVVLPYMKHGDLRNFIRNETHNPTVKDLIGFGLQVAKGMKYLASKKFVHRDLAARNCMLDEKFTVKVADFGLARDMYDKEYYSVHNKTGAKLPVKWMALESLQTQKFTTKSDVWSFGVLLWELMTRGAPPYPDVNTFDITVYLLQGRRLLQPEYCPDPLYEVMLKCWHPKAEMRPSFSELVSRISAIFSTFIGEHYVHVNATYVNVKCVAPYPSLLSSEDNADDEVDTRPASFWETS

Sequence of Phosphatidylinositol 4,5-bisphosphate 3-kinase catalytic subunit alpha isoform (P42336 whole entry, canonical isoform): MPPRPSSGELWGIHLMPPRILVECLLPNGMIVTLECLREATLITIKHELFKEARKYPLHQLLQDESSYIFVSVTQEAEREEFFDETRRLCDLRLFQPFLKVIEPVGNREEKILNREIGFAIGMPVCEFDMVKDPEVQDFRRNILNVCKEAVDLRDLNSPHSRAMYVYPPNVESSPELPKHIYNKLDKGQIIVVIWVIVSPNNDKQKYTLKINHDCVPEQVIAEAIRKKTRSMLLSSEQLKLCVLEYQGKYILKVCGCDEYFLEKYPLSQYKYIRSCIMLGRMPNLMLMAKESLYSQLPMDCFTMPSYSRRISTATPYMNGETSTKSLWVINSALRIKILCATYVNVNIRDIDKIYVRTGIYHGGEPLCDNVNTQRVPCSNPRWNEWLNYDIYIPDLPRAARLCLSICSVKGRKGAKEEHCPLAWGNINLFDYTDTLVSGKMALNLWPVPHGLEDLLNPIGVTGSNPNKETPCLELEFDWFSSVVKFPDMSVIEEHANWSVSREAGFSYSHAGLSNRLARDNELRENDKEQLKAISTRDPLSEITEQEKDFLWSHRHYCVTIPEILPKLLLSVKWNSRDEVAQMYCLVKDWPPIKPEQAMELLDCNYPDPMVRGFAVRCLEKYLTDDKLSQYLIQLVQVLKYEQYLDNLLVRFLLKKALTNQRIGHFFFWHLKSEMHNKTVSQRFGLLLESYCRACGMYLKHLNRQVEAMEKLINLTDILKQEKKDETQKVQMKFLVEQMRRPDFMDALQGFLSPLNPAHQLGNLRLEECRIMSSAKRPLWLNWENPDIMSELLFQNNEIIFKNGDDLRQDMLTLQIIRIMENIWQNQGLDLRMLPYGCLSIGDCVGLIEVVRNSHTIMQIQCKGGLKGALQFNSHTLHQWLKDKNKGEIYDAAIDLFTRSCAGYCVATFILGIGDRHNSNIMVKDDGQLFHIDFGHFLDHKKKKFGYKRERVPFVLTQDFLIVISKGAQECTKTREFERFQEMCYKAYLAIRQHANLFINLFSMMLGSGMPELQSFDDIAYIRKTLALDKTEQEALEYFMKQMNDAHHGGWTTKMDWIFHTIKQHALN
Sequence of Macrophage colony-stimulating factor 1 receptor (P07333 whole entry, canonical isoform): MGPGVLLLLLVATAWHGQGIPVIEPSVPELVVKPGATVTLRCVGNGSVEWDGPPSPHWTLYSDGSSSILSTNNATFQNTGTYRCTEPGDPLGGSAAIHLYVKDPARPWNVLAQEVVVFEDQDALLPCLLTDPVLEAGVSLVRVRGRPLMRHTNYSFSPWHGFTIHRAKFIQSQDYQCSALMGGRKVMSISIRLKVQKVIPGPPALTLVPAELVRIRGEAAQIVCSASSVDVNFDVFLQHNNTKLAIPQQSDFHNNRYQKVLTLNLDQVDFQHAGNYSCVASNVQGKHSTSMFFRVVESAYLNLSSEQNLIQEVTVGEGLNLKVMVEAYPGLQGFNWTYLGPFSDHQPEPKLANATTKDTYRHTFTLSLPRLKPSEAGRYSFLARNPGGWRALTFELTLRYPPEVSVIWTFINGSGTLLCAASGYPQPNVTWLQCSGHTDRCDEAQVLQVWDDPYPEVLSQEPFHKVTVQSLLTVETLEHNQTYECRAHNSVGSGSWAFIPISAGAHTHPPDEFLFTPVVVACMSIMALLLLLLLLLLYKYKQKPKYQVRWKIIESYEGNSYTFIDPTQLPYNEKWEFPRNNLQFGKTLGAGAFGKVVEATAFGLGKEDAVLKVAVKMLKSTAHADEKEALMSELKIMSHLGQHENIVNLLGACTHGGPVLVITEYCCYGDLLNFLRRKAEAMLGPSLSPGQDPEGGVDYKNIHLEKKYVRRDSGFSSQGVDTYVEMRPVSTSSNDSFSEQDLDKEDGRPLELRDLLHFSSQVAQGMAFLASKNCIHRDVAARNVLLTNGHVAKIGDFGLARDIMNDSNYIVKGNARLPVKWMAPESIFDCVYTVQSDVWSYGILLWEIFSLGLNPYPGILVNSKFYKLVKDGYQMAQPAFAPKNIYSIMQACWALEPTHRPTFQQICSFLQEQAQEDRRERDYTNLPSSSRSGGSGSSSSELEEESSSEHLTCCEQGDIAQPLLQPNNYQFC

IC50 [2]	Compound	other results
	C1=C(c2cc(C3CNCNC3)ccc2NCc2ncc[nH]2)CCCC1	IC50 [1]: 2.51 nM
1.91 nM	c1n[nH]c(-c2nc3c(s2)CCOc2cc(C4CNC4)ccc2-3)n1	
0.269 nM	c1n[nH]c(-c2nc3c(s2)CCOc2cc(-c4cn[nH]c4)ccc2-3)n1	
	C1=CN(c2ccccc2)CC(CNc2ccc(Oc3ccncc3)cc2)=C1	IC50 [3]: 8.91 nM
